Where “and” joins values, the source holds several entries; their conditions need not be identical. Equal values may be shown once.
How the values were obtained:
Test in all cases: Greenhouse pot test, effect of diformylurea concentration applied to seeds
Type in all cases: in vivo
[1] = system: Cotton; details: seed treated, 24 h soak, 30 days; for Total (gm), Average / Roots (gm), Average / Shoots (gm), Average: average of samples
Experimental: (§1) Additional experiments were designed to study further the effect of the concentration of diformylurea applied to the seeds of several other crops. These experiments were conducted using cotton, rice, corn and soybeans. These experiments were similar to the preliminary experiments described above. The concentrate described above, containing both diformylurea and formate, was used to prepare solutions containing low, medium and high concentrations of diformylurea having, respectively, 0.001 M, 0.01 M and 0.05 M diformylurea. These solutions were used to treat the seeds of cotton, rice, corn and soybeans. Seeds of each of these crops were soaked in water or the prepared aqueous solutions of diformylurea for 24 hours before planting. Five seeds were planted in each of six, 1 gallon greenhouse pots. Pots were thinned to two plants after germination and the plants watered and fertilized as needed for 30 days. Thereafter, the plants were harvested and the mass of the roots, shoots and total mass determined.

[2] = system: Rice; details: seed treated, 24 h soak, 30 days; for Roots (gm), Average / Shoots (gm), Average / Total (gm), Average: average of samples
Experimental: as §1

[3] = system: Soybean; details: seed treated, 24 h soak, 30 days; for Roots (gm), Average / Shoots (gm), Average / Total (gm), Average: average of samples
Experimental: as §1

O=CNC(=O)NC=O [diformylurea, N,N′-diformylurea]
Total (gm), Average ([1]; 0.001 M): 13.23 gm
Shoots (gm) ([1]; 0.001 M, single sample (pot)): 4.80 gm and 4.40 gm and 6.20 gm and 5.50 gm and 5.70 gm
Total (gm) ([1]; 0.001 M, single sample (pot)): 8.60 gm and 12.40 gm and 16.20 gm and 14.70 gm and 12.60 gm and 14.90 gm
Percent Change v. Control, Roots ([1]; 0.01 M): 49%
Percent Change v. Control, Shoots ([1]; 0.01 M): 15%
Percent Change v. Control, Total ([1]; 0.01 M): 28%
Root/Shoot Ratio ([1]; 0.01 M): 0.86
Roots (gm), Average ([1]; 0.01 M): 4.50 gm
Shoots (gm), Average ([1]; 0.01 M): 5.25 gm
Total (gm), Average ([1]; 0.01 M): 9.75 gm
Shoots (gm) ([1]; 0.01 M, single sample (pot)): 4.00 gm and 6.00 gm and 4.90 gm and 7.20 gm and 4.80 gm and 4.60 gm
Percent Change v. Control, Roots ([1]; 0.05 M): 67%
Percent Change v. Control, Shoots ([1]; 0.05 M): 29%
Percent Change v. Control, Total ([1]; 0.05 M): 44%
Root/Shoot Ratio ([1]; 0.05 M): 0.86
Roots (gm), Average ([1]; 0.05 M): 5.07 gm
Shoots (gm), Average ([1]; 0.05 M): 5.90 gm
Total (gm), Average ([1]; 0.05 M): 10.97 gm
Roots (gm) ([1]; 0.05 M, single sample (pot)): 4.30 gm and 6.00 gm and 4.20 gm and 4.60 gm and 4.70 gm and 6.60 gm
Shoots (gm) ([1]; 0.05 M, single sample (pot)): 4.70 gm and 5.00 gm and 6.40 gm and 5.40 gm and 6.90 gm and 7.00 gm
Total (gm) ([1]; 0.05 M, single sample (pot)): 9.00 gm and 11.00 gm and 10.60 gm and 10.80 gm and 11.60 gm and 13.60 gm
Percent Change v. Control, Roots ([2]; 0.001 M): 37%
Percent Change v. Control, Shoots ([2]; 0.001 M): 42%
Percent Change v. Control, Total ([2]; 0.001 M): 39%
Root/Shoot Ratio ([2]; 0.001 M): 1.79
Roots (gm), Average ([2]; 0.001 M): 0.61 gm
Shoots (gm), Average ([2]; 0.001 M): 0.34 gm
Total (gm), Average ([2]; 0.001 M): 0.95 gm
Percent Change v. Control, Roots ([2]; 0.01 M): 13%
Percent Change v. Control, Shoots ([2]; 0.01 M): 29%
Percent Change v. Control, Total ([2]; 0.01 M): 19%
Root/Shoot Ratio ([2]; 0.01 M): 1.67
Roots (gm), Average ([2]; 0.01 M): 0.51 gm
Shoots (gm), Average ([2]; 0.01 M): 0.31 gm
Total (gm), Average ([2]; 0.01 M): 0.82 gm
Percent Change v. Control, Roots ([2]; 0.05 M): 82%
Percent Change v. Control, Shoots ([2]; 0.05 M): 63%
Percent Change v. Control, Total ([2]; 0.05 M): 76%
Root/Shoot Ratio ([2]; 0.05 M): 2.13
Roots (gm), Average ([2]; 0.05 M): 0.82 gm
Shoots (gm), Average ([2]; 0.05 M): 0.39 gm
Total (gm), Average ([2]; 0.05 M): 1.21 gm
Percent Change v. Control, Roots ([3]; 0.001 M): 89%
Percent Change v. Control, Shoots ([3]; 0.001 M): 29%
Percent Change v. Control, Total ([3]; 0.001 M): 52%
Root/Shoot Ratio ([3]; 0.001 M): 0.93
Roots (gm), Average ([3]; 0.001 M): 9.18 gm
Shoots (gm), Average ([3]; 0.001 M): 9.87 gm
Total (gm), Average ([3]; 0.001 M): 19.05 gm
Roots (gm) ([3]; 0.001 M, single sample (pot)): 7.30 gm and 8.00 gm and 11.30 gm and 12.30 gm and 7.80 gm and 8.40 gm
Shoots (gm) ([3]; 0.001 M, single sample (pot)): 10.20 gm and 10.30 gm and 9.30 gm and 10.90 gm and 8.70 gm and 9.80 gm
Total (gm) ([3]; 0.001 M, single sample (pot)): 17.50 gm and 18.30 gm and 20.60 gm and 23.20 gm and 16.50 gm and 18.20 gm
Percent Change v. Control, Roots ([3]; 0.01 M): 54%
Percent Change v. Control, Shoots ([3]; 0.01 M): 16%
Percent Change v. Control, Total ([3]; 0.01 M): 31%
Root/Shoot Ratio ([3]; 0.01 M): 0.84
Roots (gm), Average ([3]; 0.01 M): 7.48 gm
Shoots (gm), Average ([3]; 0.01 M): 8.86 gm
Total (gm), Average ([3]; 0.01 M): 16.34 gm
Shoots (gm) ([3]; 0.01 M, single sample (pot)): 11.20 gm and 6.00 gm and 8.30 gm and 9.90 gm and 8.90 gm
